Measured values published in US20080249033A1, “Carbamate Linked Macrolides Useful For The Treatment Of Microbial Infections” (priority 2004, published 2008).

Experiments:
Type in all cases: cell-based
[1] = system: S. aureus Smith ATCC 0329; assay: MIC, microtiter broth serial dilution test; details: Staphylococcus aureus, ATCC0329
S. pneumoniae 0541 = assay: MIC, microtiter broth serial dilution test; details: Streptococcus pneumoniae
S. pyogenes 0542 = assay: MIC, microtiter broth serial dilution test; details: Streptococcus pyogenes
E. faecalis ATCC 0004 = assay: MIC, microtiter broth serial dilution test; details: Enterococcus faecalis, ATCC0004
H. influenzae ATCC 0529 = assay: MIC, microtiter broth serial dilution test; details: Haemophilus influenzae, ATCC0529
[2] = system: erythromycin resistant strains of Streptococcus pneumoniae; assay: MIC, erythromycin resistant strains
[3] = system: erythromycin resistant strains of Streptococcus pyogenes; assay: MIC, erythromycin resistant strains
M. catarrhalis ATCC 0324 = assay: MIC, microtiter broth serial dilution test; details: Moraxella catarrhalis, ATCC0324

MIC [1] | MIC (S. pneumoniae 0541) | MIC (S. pyogenes 0542) | MIC (E. faecalis ATCC 0004) | MIC (H. influenzae ATCC 0529) | MIC [2] | MIC [3] | MIC (M. catarrhalis ATCC 0324) | SMILES
≤ 0.125 µg/mL | ≤ 0.125 µg/mL | ≤ 0.125 µg/mL | ≤ 0.125 µg/mL | ≤ 2 µg/mL | ≤ 0.125 µg/mL | ≤ 0.125 µg/mL | – | CC[C@H]1OC(=O)[C@H](C)[C@@H](OC2C[C@@](C)(OC)[C@@H](OC(=O)NCCOCCOCCNc3cc4c(=O)c(C(=O)O)cn(C5CC5)c4cc3Cl)[C@H](C)O2)[C@H](C)[C@@H](OC2O[C@H](C)C[C@H](N(C)C)[C@H]2O)[C@](C)(OC)C[C@@H](C)C(=O)[C@H](C)[C@@H](O)[C@]1(C)O (some centres unmarked) [Example 1, 4″-O-2-{2-[2-(3-Carboxy-7-chloro-1-cyclopropyl-4-oxo-1,4-dihydro-quinolin-6-ylamino)-ethoxy]-ethoxy}-ethylcarbamoyl-6-O-methyl erythromycin A]
≤ 0.125 µg/mL | ≤ 0.125 µg/mL | ≤ 0.125 µg/mL | ≤ 0.125 µg/mL | ≤ 2 µg/mL | ≤ 0.125 µg/mL | ≤ 0.125 µg/mL | – | CC[C@H]1OC(=O)[C@H](C)[C@@H](OC2C[C@@](C)(OC)[C@H](OC(=O)NCCOCCOCCNc3cc4c(=O)c(C(=O)O)cn(C5CC5)c4cc3Cl)[C@@H](C)O2)[C@H](C)[C@@H](O[C@@H]2O[C@H](C)CC(N(C)C)[C@H]2O)[C@](C)(O)C[C@@H](C)CN(C)[C@H](C)[C@@H](O)[C@]1(C)O (some centres unmarked) [Example 2, 4″-O-2-{2-[2-(3-Carboxy-7-chloro-1-cyclopropyl-4-oxo-1,4-dihydro-quinolin-6-ylamino)-ethoxy]-ethoxy}-ethylcarbamoyl-azithromycin]
≤ 0.125 µg/mL | ≤ 0.125 µg/mL | ≤ 0.125 µg/mL | ≤ 0.125 µg/mL | ≤ 0.125 µg/mL | – | – | ≤ 0.5 µg/mL | CC[C@H]1OC(=O)[C@H](C)[C@@H](O[C@H]2C[C@@](C)(OC)[C@@H](OC(=O)NCCOCCOCC#Cc3ccc4c(c3)c(=O)c(C(=O)O)cn4CC)[C@H](C)O2)[C@H](C)[C@@H](O[C@@H]2O[C@H](C)CC(N(C)C)[C@H]2O)[C@](C)(O)C[C@@H](C)CN(C)[C@H](C)[C@@H](O)[C@]1(C)O (some centres unmarked) [Example 3, 4″-(2-{2-[3-(3-Carboxy-1-ethyl-4-oxo-1,4-dihydro-quinolin-6-yl)-prop-2-ynyloxy]-ethoxy}-ethylcarbamoyl)-azithromycin]
≤ 0.125 µg/mL | ≤ 0.125 µg/mL | ≤ 0.125 µg/mL | ≤ 0.125 µg/mL | ≤ 0.125 µg/mL | – | – | ≤ 0.5 µg/mL | CC[C@H]1OC(=O)[C@H](C)[C@@H](O[C@H]2C[C@@](C)(OC)[C@@H](OC(=O)NCCOCCOCCCc3ccc4c(c3)c(=O)c(C(=O)O)cn4CC)[C@H](C)O2)[C@H](C)[C@@H](O[C@@H]2O[C@H](C)CC(N(C)C)[C@H]2O)[C@](C)(O)C[C@@H](C)CN(C)[C@H](C)[C@@H](O)[C@]1(C)O (some centres unmarked) [Example 4, 4,1-(2-{2-[3-(3-Carboxy-1-ethyl-4-oxo-1,4-dihydro-quinolin-6-yl)-propoxy]-ethoxy}-ethylcarbamoyl)-azithromycin]
